In experiment [1] the target is T1, BIG1 (DCB-HUS-Sec7 construct) (Homo sapiens, UniProt Q9Y6D6).
T1 construct: BIG1^Sec7 (691-889), BIG1^DcbHusSec7 (2-888); made in house
T1 sequence (Q9Y6D6 2-888): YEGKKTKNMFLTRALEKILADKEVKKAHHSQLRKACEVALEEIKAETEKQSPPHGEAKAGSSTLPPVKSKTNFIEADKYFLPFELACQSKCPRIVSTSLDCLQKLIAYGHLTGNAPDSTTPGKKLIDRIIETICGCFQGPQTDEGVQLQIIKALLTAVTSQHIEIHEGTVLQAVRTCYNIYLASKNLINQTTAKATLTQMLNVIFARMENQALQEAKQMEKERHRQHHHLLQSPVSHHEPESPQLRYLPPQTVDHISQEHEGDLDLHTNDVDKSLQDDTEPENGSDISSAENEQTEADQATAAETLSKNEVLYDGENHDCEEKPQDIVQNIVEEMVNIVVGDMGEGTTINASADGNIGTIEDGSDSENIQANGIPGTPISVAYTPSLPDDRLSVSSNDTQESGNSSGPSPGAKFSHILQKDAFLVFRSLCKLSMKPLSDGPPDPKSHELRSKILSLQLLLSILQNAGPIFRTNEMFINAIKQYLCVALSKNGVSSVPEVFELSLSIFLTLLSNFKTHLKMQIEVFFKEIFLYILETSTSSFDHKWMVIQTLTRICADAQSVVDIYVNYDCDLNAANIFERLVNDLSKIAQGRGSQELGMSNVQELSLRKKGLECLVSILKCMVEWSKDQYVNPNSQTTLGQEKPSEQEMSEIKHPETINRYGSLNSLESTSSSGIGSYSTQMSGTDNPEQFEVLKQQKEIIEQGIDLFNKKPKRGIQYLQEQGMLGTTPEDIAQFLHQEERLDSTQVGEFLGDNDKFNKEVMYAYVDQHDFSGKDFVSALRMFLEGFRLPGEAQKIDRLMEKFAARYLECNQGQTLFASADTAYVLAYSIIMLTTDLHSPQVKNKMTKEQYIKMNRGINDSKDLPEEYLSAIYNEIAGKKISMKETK
As to the kind of experiment: Nucleotide exchange kinetics on liposomes, activation of myristoylated Arf1. The experiment is classed as biochemical. The settings on record: 50 μM.

The target in experiment [2] is T2, EFA6 (Sec7PHCt construct) (Homo sapiens, UniProt A5PKW4).
T2 construct: human EFA6^Sec7 (527-727) and EFA6^Sec7PHCt (527-1024); made in house
T2 sequence (A5PKW4 527-1024): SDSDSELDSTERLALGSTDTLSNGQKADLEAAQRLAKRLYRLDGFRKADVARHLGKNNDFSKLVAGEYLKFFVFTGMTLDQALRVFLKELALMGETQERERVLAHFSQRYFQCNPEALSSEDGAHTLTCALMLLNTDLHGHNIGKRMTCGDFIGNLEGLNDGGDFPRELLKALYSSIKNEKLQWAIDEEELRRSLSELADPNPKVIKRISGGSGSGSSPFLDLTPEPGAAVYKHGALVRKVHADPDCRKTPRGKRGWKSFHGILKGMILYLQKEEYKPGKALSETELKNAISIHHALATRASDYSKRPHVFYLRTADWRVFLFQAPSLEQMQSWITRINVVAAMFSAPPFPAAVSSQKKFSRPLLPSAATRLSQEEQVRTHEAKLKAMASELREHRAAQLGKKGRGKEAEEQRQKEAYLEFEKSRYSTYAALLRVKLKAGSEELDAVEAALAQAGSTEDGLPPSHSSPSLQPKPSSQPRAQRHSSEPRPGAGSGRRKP
Described as above. In kind it is biochemical. The conditions noted are these: 50 μM.

The target in the next experiment is T3, yeast ArfGEF Sec7p (Saccharomyces cerevisiae, UniProt P11075).
T3 construct: endogenous in cells; host or cells: yeast
T3 sequence (P11075 whole entry): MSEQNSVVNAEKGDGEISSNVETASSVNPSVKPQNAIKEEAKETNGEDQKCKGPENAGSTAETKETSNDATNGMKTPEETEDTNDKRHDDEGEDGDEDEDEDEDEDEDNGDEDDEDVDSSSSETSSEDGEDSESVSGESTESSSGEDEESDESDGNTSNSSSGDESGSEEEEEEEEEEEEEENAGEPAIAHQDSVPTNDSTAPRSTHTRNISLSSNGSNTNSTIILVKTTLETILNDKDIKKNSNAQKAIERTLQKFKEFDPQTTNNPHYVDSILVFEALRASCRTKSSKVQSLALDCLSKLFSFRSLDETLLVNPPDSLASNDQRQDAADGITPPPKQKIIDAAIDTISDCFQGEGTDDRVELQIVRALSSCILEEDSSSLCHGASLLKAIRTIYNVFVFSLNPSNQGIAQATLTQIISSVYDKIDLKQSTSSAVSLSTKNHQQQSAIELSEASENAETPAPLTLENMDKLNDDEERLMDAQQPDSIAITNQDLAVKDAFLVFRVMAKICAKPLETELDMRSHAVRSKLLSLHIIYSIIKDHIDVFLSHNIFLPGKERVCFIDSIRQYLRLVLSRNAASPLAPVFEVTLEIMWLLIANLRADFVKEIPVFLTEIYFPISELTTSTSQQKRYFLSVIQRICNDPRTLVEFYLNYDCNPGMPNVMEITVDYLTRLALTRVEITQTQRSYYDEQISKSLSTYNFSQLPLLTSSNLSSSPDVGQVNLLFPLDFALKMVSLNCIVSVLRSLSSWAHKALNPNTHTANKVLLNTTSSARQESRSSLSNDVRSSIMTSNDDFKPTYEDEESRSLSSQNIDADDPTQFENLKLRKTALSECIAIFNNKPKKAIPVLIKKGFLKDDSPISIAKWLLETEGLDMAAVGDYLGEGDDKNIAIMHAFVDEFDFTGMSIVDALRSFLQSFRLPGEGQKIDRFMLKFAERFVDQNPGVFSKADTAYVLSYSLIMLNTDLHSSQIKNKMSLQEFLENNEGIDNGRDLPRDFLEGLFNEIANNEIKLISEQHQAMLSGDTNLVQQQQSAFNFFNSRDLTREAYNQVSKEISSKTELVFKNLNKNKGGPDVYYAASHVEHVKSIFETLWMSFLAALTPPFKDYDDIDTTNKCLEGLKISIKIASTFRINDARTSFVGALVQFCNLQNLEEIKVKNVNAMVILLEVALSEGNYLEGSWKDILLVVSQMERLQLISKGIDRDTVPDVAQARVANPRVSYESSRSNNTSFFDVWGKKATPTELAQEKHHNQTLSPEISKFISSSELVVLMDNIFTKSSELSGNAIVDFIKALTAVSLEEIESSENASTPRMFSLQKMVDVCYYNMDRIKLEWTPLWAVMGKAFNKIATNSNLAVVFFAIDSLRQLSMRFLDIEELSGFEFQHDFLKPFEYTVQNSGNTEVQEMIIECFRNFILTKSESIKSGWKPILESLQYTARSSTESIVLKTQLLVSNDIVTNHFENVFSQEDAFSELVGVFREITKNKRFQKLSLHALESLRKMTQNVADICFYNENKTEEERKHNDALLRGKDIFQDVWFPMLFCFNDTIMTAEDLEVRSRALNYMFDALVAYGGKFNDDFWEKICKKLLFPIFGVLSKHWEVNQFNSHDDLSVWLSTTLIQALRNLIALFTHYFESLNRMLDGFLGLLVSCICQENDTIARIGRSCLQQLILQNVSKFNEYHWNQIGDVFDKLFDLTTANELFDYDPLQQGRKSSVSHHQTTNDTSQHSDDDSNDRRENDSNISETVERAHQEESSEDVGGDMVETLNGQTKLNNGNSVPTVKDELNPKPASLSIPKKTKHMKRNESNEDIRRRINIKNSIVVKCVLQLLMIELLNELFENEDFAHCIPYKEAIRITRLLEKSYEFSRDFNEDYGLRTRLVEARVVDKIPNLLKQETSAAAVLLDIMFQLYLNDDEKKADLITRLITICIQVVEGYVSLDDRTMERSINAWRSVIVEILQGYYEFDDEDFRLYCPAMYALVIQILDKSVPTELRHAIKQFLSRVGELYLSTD
In words: Yeast chemogenomic screen. The experiment is classed as cell-based.

Take `Cc1ccc2oc(C(F)(F)F)cc(=O)c2c1[N+](=O)[O-]` [Bragsin1, 6-methyl-5-nitro-2-(trifluoromethyl)-4H-chromen-4-one]: the “Effect on ArfGEF activity on liposomes” value in experiment [1] and in experiment [2] was “no effect” throughout. Moreover, on yeast ArfGEF Sec7p, the “Effect on function of yeast ArfGEF Sec7p” value is reported as “perturbs the function”.

The values above are taken from patent publication US12152012B2, “BRAG2 inhibitors and applications thereof” (CENTRE NATIONAL DE LA RECHERCHE SCIENTIFIQUE, priority 2018, dated 2024).
